# Experiments:
# [1] = parameters: method as in PMID 38234602; conditions: cited from earlier work
# [2] = tested on: various cell lines related to breast, colon, liver, and ovary cancer; parameters: method as in PMID 9607601; conditions: range over cell lines related to breast, read-out: IC50 as an antiproliferative agent; cited from earlier work
# [3] = read-out: IC50 (cytotoxicity); cited from earlier work
# [4] = tested on: membranes of human lung normal (healthy) cells; assay: EPR study of TEMPO partitioning into membranes of healthy (normal) human lung cells; format: physicochemical; conditions: for DGK (free energy change to transfer TEMPO from aqueous to lipid phase of the membrane) / DGt (∆Gτ, activation energy of rotational motions of TEMPO in the membrane) / 2Aiso aqueous / 2Aiso membrane: healthy cells; for DGK (free energy change to transfer TEMPO from aqueous to lipid phase of the membrane) / DGt (∆Gτ, activation energy of rotational motions of TEMPO in the membrane): 283–317 K; for 2Aiso aqueous: TEMPO in aqueous phase; for 2Aiso membrane: TEMPO in membrane
# Procedure: (§1) The fresh lung tissue (about 2-3 h after the surgery) was washed thoroughly with PBS buffer to remove blood. Afterward, the tissue was cut into small pieces and then homogenized in PBS buffer using a glass homogenizer. The homogenized lung tissue was washed three times with PBS solution and then centrifuged (Eppendorf 5418) to remove the cell debris. Obtained cell suspension was used for the experiments. The intactness of the cells was assessed by Zeta-potential measurements as shown previously.
# (§2) EPR measurements were performed using a Bruker ELEXSYS E580 spectrometer at X-band frequency with variable temperature accessory. The aqueous suspension of lung carcinoma and neighboring normal cells with TEMPO were placed into Pyrex capillary tubes with an I.D. of 0.6 mm. EPR spectra were recorded with the following instrument parameters: scan width: 100 Gauss; sweep time: 40 s; modulation amplitude: 1 Gauss; modulation frequency: 100 kHz; microwave power: 0.47 mW; and time constant: 0.1 s. Before the measurements, the samples were kept for 5 minutes at each temperature to ensure that the sample temperature matched the set temperatures.
# (§3) The difference in the nitrogen splitting constant of TEMPO in hydrophobic (cell membrane) and hydrophilic (aqueous) environments is the reason for the split of the third component. Consequently, the EPR spectra of TEMPO incubated with cells in an aqueous environment reflect the partitioning of TEMPO in the lipid fraction of the cell membrane and aqueous environments. To resolve the spectral components, the EPR spectra of TEMPO were analyzed using the LabVIEW program developed by Christian Altenbach (https://sites.google.com/site/altenbach/), using the spectral simulation code written in FORTRAN [34]. Along with computer simulations, rotational correlation times of TEMPO were also calculated using the following formula that uses the peak heights and line widths of the first derivative EPR spectra:
# (§4) where W0 is the width (in Gauss) of the central component, while h0 and h-1 are the heights of the central and high-magnetic field components of the first derivative EPR spectrum. As mentioned above, the EPR spectra resulting from the partitioning of TEMPO in the system are composite and consist of two components. Therefore, the formula above was applied after the decomposition of the EPR spectra into lipophilic and hydrophilic components. Because of the close similarity of the correlation times obtained from the software and the formula, data are shown only as deduced from the software.
# (§5) Double integrals of the EPR spectral components (Imbrand Iaqrepresent TEMPO confined in the membrane and aqueous environments, respectively) were employed to calculate partition coefficients with the following formula: K = Imbr/(Imbr+ Iaq). To characterize the EPR spectral components, the membrane and aqueous environments were described as lipophylic and hydrophilic, respectively. Apparently, a partition coefficient depends on both the concentration of the lipid fractions and the number of lung cells in the aqueous system. For an accurate comparison of the data related to the partition coefficients, the same amount (by weight) of cancer and normal cell suspensions were used. Both cancer and normal cell suspensions were incubated with TEMPO (150 mM total concentration) for about 30 min. The experimental conditions used in this study allow us to compare the partition coefficients of the normal and cancer cells directly.
# (§6) The temperature dependence of the equilibrium constant K (partition coefficient in our case) was used to calculate the free energy changes required to transfer TEMPO molecules from the aqueous to the lipid phase of the membranes of the healthy and cancer cells.
# (§7) Similarly, the temperature dependence of the rotational correlation times of TEMPO was used to determine the activation energies for rotational motions in the membranes of the healthy and cancer cells.
# [5] = from cited IC50 values
# [6] = tested on: membranes of human lung carcinoma (cancer) cells; assay: EPR study of TEMPO partitioning into membranes of human lung carcinoma cells; format: physicochemical; conditions: for 2Aiso aqueous: TEMPO in aqueous phase
# Procedure: as §1, §2, §3, §4, §5, §6, §7
# HCT116 cell lines = tested on: HCT116 cell lines; parameters: method as in PMID 9607601; conditions: cited from earlier work
# [7] = cancer cells, pH 6.2, 283–317 K
# [8] = cancer cells, pH 7.3, 283–317 K
smiles,measurement,setting,value
CC1(C)CC(OC(=O)c2ccccc2)CC(C)(C)N1[O] [TEMPO-benzoate],partitioning in liposome studies,[1],significantly enhanced partitioning
"CC1(C)CC(O)CC(C)(C)N1[O] [TEMPOL, 4-hydroxy-TEMPO]",IC50,[2],210 to 1070 µM
same,IC50,[3],11400 µM
"CC1(C)CCCC(C)(C)N1[O] [TEMPO, 2,2,6,6-tetramethylpiperidine-1-oxyl]",increase of free energy change of TEMPO transfer,"[4]; healthy cell membranes, acidic transition from pH 7.3 to pH 6.2",about 19%
same,rotational correlation time of TEMPO in membrane,"[4]; healthy cell membranes, room temperature, pH 7.3",~617 ps
same,DGK (free energy change to transfer TEMPO from aqueous to lipid phase of the membrane),[4]; pH 6.2,3.7 ± 0.3 kcal/mol
same,"DGt (∆Gτ, activation energy of rotational motions of TEMPO in the membrane)",[4]; pH 6.2,3.8 ± 0.3 kcal/mol
same,2Aiso aqueous,[4]; pH 6.2,34.4 Gauss
same,2Aiso membrane,[4]; pH 6.2,31.9 Gauss
same,DGK (free energy change to transfer TEMPO from aqueous to lipid phase of the membrane),[4]; pH 7.3,3.1 ± 0.1 kcal/mol
same,"DGt (∆Gτ, activation energy of rotational motions of TEMPO in the membrane)",[4]; pH 7.3,1.9 ± 0.2 kcal/mol
same,2Aiso aqueous,[4]; pH 7.3,34.5 Gauss
same,2Aiso membrane,[4]; pH 7.3,32.4 Gauss
same,2Aiso values of TEMPO incorporated into the membranes of the cells (interval),"[4]; membranes of healthy and cancer cells, pH 6.2 and 7.3",31.4−32.4 Gauss
same,IC50 of TEMPO relative to TEMPOL (fold lower),[5],about 4 fold
same,partitioning into liposomes of cancer cell lipids compared to liposomes of normal cell lipids,[1],significantly enhanced partitioning
same,IC50,[3],2700 µM
same,increase of free energy change of TEMPO transfer,"[6]; cancer cell membranes, acidic transition from pH 7.3 to pH 6.2",~42%
same,rotational correlation time of TEMPO in membrane,"[6]; cancer cell membranes, room temperature, pH 7.3",about 490 ps
same,less energy required for TEMPO partitioning,"[6]; cancer cells at pH 7.3, free energy values compared for pH 6.2 and 7.3",30%
same,DGK (free energy change to transfer TEMPO from aqueous to lipid phase of the membrane),[6]; [7],1.7 ± 0.1 kcal/mol
same,"DGt (∆Gτ, activation energy of rotational motions of TEMPO in the membrane)",[6]; [7],2.6 ± 0.3 kcal/mol
same,2Aiso aqueous,"[6]; cancer cells, pH 6.2",34.5 Gauss
same,DGK (free energy change to transfer TEMPO from aqueous to lipid phase of the membrane),[6]; [8],1.2 ± 0.1 kcal/mol
same,"DGt (∆Gτ, activation energy of rotational motions of TEMPO in the membrane)",[6]; [8],2.1 ± 0.2 kcal/mol
same,2Aiso aqueous,"[6]; cancer cells, pH 7.3",34.5 Gauss
same,2Aiso membrane,"[6]; cancer cells, pH 7.3, TEMPO in membrane",31.5 Gauss
same,"TEMPO partition coefficient, cancer cells compared with healthy cells","[6]; cancer vs neighboring normal cells, 283–317 K, pH 7.3 and 6.2",significantly higher
COc1cccc2c1C(=O)c1c(O)c3c(c(O)c1C2=O)C[C@@](O)(C(=O)CO)C[C@@H]3O[C@H]1C[C@H](N)[C@H](O)[C@H](C)O1 [doxorubicin],fold decrease of doxorubicin IC50 by TEMPOL pretreatment,HCT116 cell lines,~7 fold

# From PMC10790361, “Membrane Partitioning of TEMPO Discriminates Human Lung Cancer from Neighboring Normal Cells” (Acta Naturae, 2023)
